Patent US9289490B2, “Combinations and uses thereof” (MORPHOSYS AG, priority 2010, dated 2016)

Experiments:
[1] = tested on: LP-1 cells; test: CD38 surface expression after lenalidomide (FACS, ABC); format: cell-based, human
Method: (§1) Cells were stained with a directly labelled QuantiBRITE™ CD38-PE antibody (Becton Dickinson GmbH, Clone HB7, CAT #342371), which is specific for CD38. The “Antibodies Bound Per Cell” (ABC's) were determined using the flow cytometry based QuantiBRITE™ system, which measures the geometric mean (GeoMean) per cell. Conversion of measured GeoMean into correlating ABC amount per cell was done with GraphPad PRISM™ software. The ABC values are assumed to correlate with the number of CD38 molecules per cell, since QuantiBRITE™ CD38-PE carries one PE molecule per antibody.
(§2) To determine whether lenalidomide induced upregulation of CD38 in the multiple myeloma and plasmacytoma cells of Table 1, the cell lines were incubated with 100 μM lenalidomide and, subsequently, CD38 surface expression was analyzed by FACS.
(§3) Around 2×10^5 cells of each of the cells lines of Table 1 were plated on 48-well dishes in standard RPMI medium. Lenalidomide, purchased from Selleck Chemicals (LLC S1029, CAS No. 191732-6; Batch: S10290), was applied to respective wells to a final concentration of 100 μM in a volume of 750 μl containing 20% FCS and 0.1% DMSO.
(§4) Cells were resuspended by gentle pipetting and 250 μl of cell suspension per incubation period were transferred into a well of a 96-well round bottom plate. Cells were washed by centrifugation for 1 min at 700×g and were resuspended in 150 μl of cold FACS buffer (1×PBS supplemented with 3% FCS). Cells were again pelleted down by centrifugation and were resuspended in 150 μl of FACS buffer containing 15 μg/ml of anti-CD38 antibody (MOR202, IgG1) or control antibody MOR03207 and incubated for 1 h on ice. Cells were then washed 3 times by centrifugation and were resuspended in FACS buffer supplemented with PE-labeled secondary antibody (PE-Fab2 fragment, goat anti-human IgG. Fc-fragment specific; Jackson Immuno Research; CAT: 109-116-098; Lot: 80938). Cells were incubated for 45 minutes on ice, then washed 3 times by centrifugation and resuspended in FACS buffer. The cell suspensions were then subjected to FACS analysis using a FACS array device.
(§5) Additionally, the affect of lenalidomide on the CD38 expression of AMO-1 cells is shown in FIG. 1, and the affect of lenalidomide on the CD38 expression of NCI-H929 cells is shown in FIG. 5.

[2] = tested on: RPMI-8226 cells; test: as above; format: cell-based, human
Method: as §1, §2, §3, §4, §5

[3] = tested on: NCI-H929 cells; test: as above; format: cell-based, human
Method: as §1, §2, §3, §4, §5

[4] = tested on: OPM-2 cells; test: as above; format: cell-based, human
Method: as §1, §2, §3, §4, §5

[5] = tested on: NCI-H929 cells; test: Cell proliferation, XTT-based assay; conditions: NCI-H929 cells
Method: Cells were collected and distributed in 96-well plates with 5000 cells per well.
After incubation, plates were analyzed for cell proliferation in a quantitative colorimietric XTT-based assay using the cell proliferation kit II (ROCHE, Cell Proliferation Kit II, Cat. No.: 11465015001). For subsequent measurement plates were subjected to Tecan Genios Reader and absorbance at 492 nm was detected.
Increasing amounts of Bortezomib (Velcade®, Lot: No.: #9AZSY00) were applied to AMO-1, LP-1, NCI-H929 and RPMI-8226 cells and incubated for 24 h, 48 h and 72 h. After incubation, period plates were analyzed for cell proliferation in a quantitative colorimietric XTT-based assay using the cell proliferation kit II (ROCHE, Cell Proliferation Kit II, Cat. No.: 11465015001). For subsequent measurement, plates were subjected to Tecan Genios Reader and absorbance at 492 nm was detected.

## Nc1cccc2c1CN(C1CCC(=O)NC1=O)C2=O (centres unmarked) [LEN, lenalidomide]
[1]; 100 μM lenalidomide
  Absolute number of ABC (CD38 expression) LEN (extrapolated): 162,500 ABC
  Effect (on CD38 expression): No
[1]; 100 μM lenalidomide vs basal
  Absolute number of ABC (CD38 expression) INCREASE: 37,500 ABC
  Fold increase (CD38 expression): 1.3 fold
[2]; 100 μM lenalidomide
  Absolute number of ABC (CD38 expression) LEN (extrapolated): 871,000 ABC
  Effect (on CD38 expression): Weak
[2]; 100 μM lenalidomide vs basal
  Absolute number of ABC (CD38 expression) INCREASE: 199,000 ABC
  Fold increase (CD38 expression): 1.3 fold
[3]; 100 μM lenalidomide
  Absolute number of ABC (CD38 expression) LEN (extrapolated): 390,000 ABC
  Effect (on CD38 expression): Weak
[3]; 100 μM lenalidomide vs basal
  Absolute number of ABC (CD38 expression) INCREASE: 195,000 ABC
  Fold increase (CD38 expression): 2.0 fold
[4]; 100 μM lenalidomide
  Absolute number of ABC (CD38 expression) LEN (extrapolated): 98,800 ABC
[4]; 100 μM lenalidomide vs basal
  Absolute number of ABC (CD38 expression) INCREASE: 60,800 ABC
  Fold increase (CD38 expression): 2.6 fold
[5]
  Inhibition of cell proliferation by lenalidomide alone (in words): significant effect on the proliferation of NCI-H929 cells
[5]; listed as Lenalidomide
  Inhibition of cell proliferation by lenalidomide alone (in words): signficantly inhibited cell proliferation
